Holding throughout (assay): relative viability (nuclei count vs DMSO), 5 days (fraction); higher = more cells survive
Compound in the assay “PAC-1 + Navitoclax”: C=CCc1cccc(/C=N/NC(=O)CN2CCN(Cc3ccccc3)CC2)c1O [PAC-1] + CC1(C)CCC(c2ccc(Cl)cc2)=C(CN2CCN(c3ccc(C(=O)NS(=O)(=O)c4ccc(N[C@H](CCN5CCOCC5)CSc5ccccc5)c(S(=O)(=O)C(F)(F)F)c4)cc3)CC2)C1 [Navitoclax] (partner 0.5 µM)
An outline of the steps: (§1)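 Lung cancer cell lines in 1536-well plates got either a single drug or a fixed anchor-drug dose together with five library-drug doses (not always all listed) in √10 steps, by pin tool, on the day after seeding. Nuclei were counted after 5 days, and relative viability is the treated-to-vehicle ratio of nuclei counts. Values are medians of duplicate plates.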

Compound in the assay “Ibrutinib + Alpelisib”: C=CC(=O)N1CCC[C@@H](n2nc(-c3ccc(Oc4ccccc4)cc3)c3c(N)ncnc32)C1 [Ibrutinib] + Cc1nc(NC(=O)N2CCC[C@H]2C(N)=O)sc1-c1ccnc(C(C)(C)C(F)(F)F)c1 [Alpelisib] (partner 2 µM)
Put shortly: as §1

Compound in the assay “PAC-1 + Linsitinib”: C=CCc1cccc(/C=N/NC(=O)CN2CCN(Cc3ccccc3)CC2)c1O [PAC-1] + C[C@]1(O)C[C@@H](c2nc(-c3ccc4ccc(-c5ccccc5)nc4c3)c3c(N)nccn32)C1 [Linsitinib] (partner 1 µM)
An outline of the steps:
as §1

Compound in the assay “BMX-IN-1 + Foretinib”: C=CC(=O)Nc1cc(-n2c(=O)ccc3cnc4ccc(-c5ccc(NS(C)(=O)=O)cc5)cc4c32)ccc1C [BMX-IN-1] + COc1cc2c(Oc3ccc(NC(=O)C4(C(=O)Nc5ccc(F)cc5)CC4)cc3F)ccnc2cc1OCCCN1CCOCC1 [Foretinib] (partner 0.25 µM)
Put shortly: as §1

SK-MES-1: the relative viability turned out to be 1.09 in the assay with PAC-1 + Navitoclax (first compound 0.02 µM); 1.3 with PAC-1 + Navitoclax (first compound 0.06325 µM); 1.19 with PAC-1 + Navitoclax (first compound 0.2 µM); 1.21 with PAC-1 + Navitoclax (first compound 2 µM); 0.441 with Ibrutinib + Alpelisib (first compound 0.005 µM); 0.842 with Ibrutinib + Alpelisib (first compound 0.01581 µM). In addition, the relative viability is 0.599 with Ibrutinib + Alpelisib (first compound 0.05 µM); 1 in the assay with Ibrutinib + Alpelisib (first compound 0.1581 µM); 0.379 with Ibrutinib + Alpelisib (first compound 0.5 µM); 1.04 with PAC-1 + Linsitinib (first compound 0.02 µM); 1.03 in the assay with PAC-1 + Linsitinib (first compound 0.06325 µM); 1.04 in the assay with PAC-1 + Linsitinib (first compound 0.2 µM). For the same cell line, the relative viability with PAC-1 + Linsitinib (first compound 2 µM) was 1.03; in the assay with BMX-IN-1 + Foretinib (first compound 0.02 µM), 0.877; with BMX-IN-1 + Foretinib (first compound 0.2 µM), 1.02; with BMX-IN-1 + Foretinib (first compound 0.6325 µM) it was 0.967; with BMX-IN-1 + Foretinib (first compound 2 µM) it was 0.728.

For the origin of these results see the supplement of paper PMC10307832.
